From US20030211589A1, “Short peptides from the b4 and b5 regions kinases which selectively modulate protein activity” (priority 2002, published 2003)
The star is where a group is joined. Stearoyl = CCCCCCCCCCCCCCCCCC(=O)*

Assays:
[1] = system: Human Fetal lung fibroblasts (HFL-1); assay: HFL-1 fibroblast cell proliferation (methylene blue staining); format: cell-based; settings: peptide 0-10 μM, 48 hours, vs control without peptide; FIG. 4
Experimental: Human Fetal lung fibroblasts (HFL-1) were obtained from the American Type Culture Collection (Manassas, Va.).
Culture medium was prepared from F-12K (Gibco), penicillin/streptomycin/glutamine (penicillin—100U/ml; streptomycin—100U/ml; glutamine—2 mM), 0.5% fetal calf serum and […] ascorbic acid. A suspension of HFL-1 cells at 2.22×10^5 cell/ml was prepared in the above described culture medium.
A series of B4-5 peptide stock solution was prepared by diluting a […] solution of the B4-5 peptide in 100% DMSO, with phosphate buffered saline (PBS) containing 0.1% BSA. The concentration of B4-5 peptide in each stock solution was adjusted to […] the desired concentration of the B4-5 peptide in the assay mixture. Twenty μl of peptide stock solution were placed at the bottom of each well in a 96-well flat bottom tissue culture plate, six replications for each concentration. BSA solution containing 1% DMSO with no added peptide served as a control. 180 μl of the HFL-1 cell suspension were added to each well (40,000 cells per well). The cells were incubated with the peptide (final concentrations of 0-10μM), for 48 hours at 37° C. in a 5% CO2 humidified incubator. At the end of the incubation the cells were fixed with buffered formaline (200 μl/well) for 1 h at room temperature. […] The O.D. was read at 595 nm to determine the number of cells per well. […]

[2] = system: HNK-1-positive neural crest cells from neural primordia explants; assay: Emigration of neural crest cells from neural primordia explants (HNK-1 immunostaining); format: cell-based, quail; settings: 5 μM peptide, 24 hours, serum-free medium, compared to control; FIG. 5
Description: The procedure for explants of neural primordia is described in greater detail in Sela-Donenfeld and Kalcheim (Development, 1999, in press), the teaching of which are incorporated herein by reference.
The trunk region of 16 somite-old quail embryos was separately sectioned at the level of the segmental plate plus the last 2 epithelial somite pairs. Neural primordia consisting of the neural tube and premigratory neural crest cells were isolated from adjacent tissues with 25% pancreatin in PBS, transferred to PBS supplemented with 5% newborn calf serum to stop enzymatic activity and washed in serum-free culture medium prior to explantation. The neural primordia were then explanted onto multi-well chamber slides that were pre-coated with fibronectin (50 μg/ml) for 1 hour. The neural primordia were cultured in 50 μl serum-free SFRI medium (Berganton, France) in the absence or presence of B4-5 peptide—K099B901, in a final concentration of 5 μM and incubated in a humid chamber for 24 hours. At the end of the incubation, the primordia were gently washed with PBS and fixed with Bouin's fluid, washed 3 times with PBS and immunostained with 50 μl of monoclonal antibodies against HNK-1 for 1 h at room temperature. Excess HNK-1 antibodies were washed 3 times with PBS. The samples were further incubated with 50 μl of a secondary fluorescent antibody, GAM-FITC for 1 h at room temperature. […]

[3] = system: fracture site on a rabbit ulna; assay: Rabbit ulnar osteotomy model of bone remodeling (histology); format: in vivo, New Zealand White rabbits; settings: peptide mixture 0.3 cm^3 applied locally to fractured area, 4 weeks, vs untreated osteotomy; FIG. 6
Experimental: The rabbit ulnar osteotomy models described by Bouxsein et al., at the 45th Annual Meeting, Orthopedic Research Society, Anaheim, Calif. (1999), were employed to assess the ability of the B4-5 peptide K099B901 (ALK4-derived peptide) to accelerate bone remodeling.
Bilateral mid-ulnar osteotomies were made in the front limbs of male New Zealand White rabbits using an oscillating saw. The preparation of the peptide was as follows: 40 mg of peptide were dissolved in 200 μl of DMSO (Sigma) and 800 μl of double distilled water. The solution was mixed with 100 mg of methyl cellulose (Sigma) and 100 mg of carboxymethyl cellulose (Serva).
The K099B901 peptide mixture (0.3 cm^3) was locally applied to the fractured area. An untreated osteotomy served as a control. Radiographs of the ulna were taking weekly for 4 weeks. The rabbits were then sacrificed and the fractured areas were taken for bone histology. The bone tissue was fixated in 4% formaldehide and then soaked in 10% formic acid for decalcification. The decalcified tissue was imbedded in paraffin wax, serially sectioned at 5μ and stained with indigo-carmine.

In the case of “K099B901: B4-5 peptide K099B901 (ALK4-derived peptide), SEQ ID NO. 30, FIG. 3 (Stearoyl-GDNKDNGTWT-NH2; SMILES CCCCCCCCCCCCCCCCCC(=O)NCC(=O)N[C@@H](CC(=O)O)C(=O)N[C@@H](CC(N)=O)C(=O)N[C@@H](CCCCN)C(=O)N[C@@H](CC(=O)O)C(=O)N[C@@H](CC(N)=O)C(=O)NCC(=O)N[C@H](C(=O)N[C@@H](Cc1c[nH]c2ccccc12)C(=O)N[C@H](C(N)=O)[C@@H](C)O)[C@@H](C)O)”, the “stimulation of cell proliferation of the HFL-1 cells” value [1] is reported as “exceeding 2 ×”, the “outgrowth of HNK-1-positive neural crest cells from the explant” value [2] is reported as “remarkable outgrowth of HNK-1—positive neural crest cells from the explant” and the “tissue formed at the fracture site (bone histology)” value [3] is reported as “a bone like bone-tissue was formed leading to a genuine regeneration”.
